Test results as given in PubChem BioAssay (NCI).
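GI50 = concentration required for 50% inhibition of growth. TGI marks complete inhibition of growth.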

Tests used:
Assay in all cases: NCI tumour cell line growth inhibition, 384-well format
SK-OV-3 ovarian = test system: SK-OV-3 ovarian
OVCAR-3 ovarian = test system: OVCAR-3 ovarian
DU-145 prostate = test system: DU-145 prostate
NCI-H322M lung = test system: NCI-H322M lung
EKVX NSCLC = test system: EKVX NSCLC
MALME-3M melanoma = test system: MALME-3M melanoma
MCF7 breast = test system: MCF7 breast
IGROV1 ovarian = test system: IGROV1 ovarian
CAKI-1 renal = test system: CAKI-1 renal
SK-MEL-28 melanoma = test system: SK-MEL-28 melanoma
RPMI-8226 leukemia = test system: RPMI-8226 leukemia
SF-295 CNS = test system: SF-295 CNS
M14 melanoma = test system: M14 melanoma
SF-539 CNS = test system: SF-539 CNS
MDA-MB-435 melanoma = test system: MDA-MB-435 melanoma
UO-31 renal = test system: UO-31 renal
PC-3 prostate = test system: PC-3 prostate
CCRF-CEM leukemia = test system: CCRF-CEM leukemia
OVCAR-4 ovarian = test system: OVCAR-4 ovarian
TK-10 renal = test system: TK-10 renal
HT29 colon = test system: HT29 colon
NCI/ADR-RES ovarian = test system: NCI/ADR-RES ovarian
HCT-15 colon = test system: HCT-15 colon
COLO 205 colon = test system: COLO 205 colon
MDA-MB-468 breast = test system: MDA-MB-468 breast
HL-60(TB) leukemia = test system: HL-60(TB) leukemia
OVCAR-5 ovarian = test system: OVCAR-5 ovarian

## Cc1ccc(C(=O)N(CCCN)C(c2oc3cc(Cl)ccc3c(=O)c2Cc2ccccc2)C(C)C)cc1 (centres undefined)
SK-OV-3 ovarian
  GI50: < 10 nM
  TGI: 1780 nM
OVCAR-3 ovarian
  GI50: < 10 nM
  TGI: < 10 nM
DU-145 prostate
  GI50: < 10 nM
  TGI: 1100 nM
NCI-H322M lung
  GI50: < 10 nM
  TGI: 2030 nM
EKVX NSCLC
  GI50: < 10 nM
  TGI: 1920 nM
MALME-3M melanoma
  GI50: < 10 nM
  TGI: 1740 nM
MCF7 breast
  GI50: < 10 nM
  TGI: 1370 nM
IGROV1 ovarian
  GI50: 511 nM
  TGI: 2140 nM
CAKI-1 renal
  GI50: < 10 nM
  TGI: 1950 nM
SK-MEL-28 melanoma
  GI50: 1310 nM
  TGI: 2600 nM
RPMI-8226 leukemia
  GI50: < 10 nM
  TGI: < 10 nM
SF-295 CNS
  GI50: < 10 nM
  TGI: 1510 nM
M14 melanoma
  GI50: < 10 nM
  TGI: < 10 nM
SF-539 CNS
  GI50: < 10 nM
  TGI: 1260 nM
MDA-MB-435 melanoma
  GI50: < 10 nM
  TGI: < 10 nM
UO-31 renal
  GI50: 1110 nM
  TGI: 2340 nM
PC-3 prostate
  GI50: < 10 nM
  TGI: 1550 nM
CCRF-CEM leukemia
  GI50: < 10 nM
  TGI: < 10 nM
OVCAR-4 ovarian
  GI50: 1270 nM
  TGI: 2560 nM
TK-10 renal
  GI50: 1540 nM
  TGI: 2900 nM
HT29 colon
  GI50: < 10 nM
  TGI: < 10 nM
NCI/ADR-RES ovarian
  GI50: 129 nM
  TGI: 286 nM
HCT-15 colon
  GI50: < 10 nM
  TGI: 1230 nM
COLO 205 colon
  GI50: < 10 nM
  TGI: < 10 nM
MDA-MB-468 breast
  GI50: < 10 nM
  TGI: < 10 nM
HL-60(TB) leukemia
  GI50: < 10 nM
  TGI: < 10 nM
OVCAR-5 ovarian
  GI50: < 10 nM
  TGI: 1570 nM
